From the NIST ThermoML archive (doi:10.1021/acs.jced.7b01040)

Tests used:
[1] = Molar enthalpy of transition or fusion; conditions: DSC
[2] = for vapor or sublimation pressure: Transpiration method; for Normal melting temperature: DTA; for Triple point temperature: DSC

Cc1c(Br)c(Br)c(C)c(Br)c1Br [1,2,4,5-tetrabromodimethylbenzene]
Crystal
Conditions	Molar enthalpy of transition or fusion [kcal/mol]	Normal melting temperature [°C]
[1]	5.71	–
[2]	–	254.2

[2], Crystal
Conditions	vapor or sublimation pressure [kPa]
322.8 K	2.4e-06
327.7 K	4.2e-06
332.7 K	7.2e-06
337.5 K	1.25e-05
342.5 K	2.1e-05
347.5 K	3.6e-05
352.4 K	5.9e-05
357.5 K	0.0001
362.4 K	0.00016
367.4 K	0.00025

BrCC(Br)COc1c(Br)cc(Br)cc1Br (centres undefined) [1,3,5-tribromo(2,3-dibromopropoxy)benzene]
Conditions	Molar enthalpy of transition or fusion, [1] [kcal/mol]	Triple point temperature, [2] [K]
Crystal 1	0.612	313.7
Crystal 2	4.09	307.9

[2], Liquid
Conditions	vapor or sublimation pressure [kPa]
322.9 K	1.9e-06
327.8 K	3.2e-06
332.7 K	5.5e-06
337.7 K	9.6e-06
342.7 K	1.7e-05
347.7 K	2.7e-05
352.7 K	4.3e-05
357.7 K	6.7e-05
362.7 K	0.00013
367.7 K	0.00016

CCc1c(Br)c(Br)c(Br)c(Br)c1Br [pentabromoethylbenzene]
Crystal
Conditions	Molar enthalpy of transition or fusion [kcal/mol]	Normal melting temperature [°C]
[1]	3.2	–
[2]	–	135.8

[2], Crystal
Conditions	vapor or sublimation pressure [kPa]
322.7 K	3.7e-06
327.6 K	6.1e-06
332.6 K	1.04e-05
337.5 K	1.7e-05
342.4 K	3.2e-05
347.4 K	4.9e-05
352.3 K	8.3e-05
357.4 K	0.00013
362.3 K	0.00021
367.3 K	0.00032

Cc1c(Br)c(Br)c(Br)c(Br)c1Br [pentabromomethylbenzene]
Crystal
Conditions	Molar enthalpy of transition or fusion [kcal/mol]	Normal melting temperature [°C]
[1]	7	–
[2]	–	286

[2], Crystal
Conditions	vapor or sublimation pressure [kPa]
322.9 K	2.7e-07
327.8 K	5.1e-07
332.9 K	9.1e-07
337.6 K	1.62e-06
342.7 K	2.9e-06
347.6 K	5.5e-06
352.6 K	9e-06
357.6 K	1.5e-05
362.5 K	2.7e-05
367.6 K	4.2e-05

Oc1c(Br)c(Br)c(Br)c(Br)c1Br [pentabromophenol]
Conditions	Molar enthalpy of transition or fusion, [1] [kcal/mol]	Triple point temperature, [2] [K]
Crystal 1	4.42	496.3
Crystal 2	2.82	416.2

[2], Crystal 2
Conditions	vapor or sublimation pressure [kPa]
322.9 K	1.9e-07
327.8 K	3.6e-07
332.8 K	6.7e-07
337.7 K	1.2e-06
342.6 K	2.3e-06
347.6 K	4.2e-06
352.6 K	7.8e-06
357.6 K	1.4e-05
362.6 K	2.7e-05
367.4 K	4.5e-05
